Key:
HDAC6 human recombinant = molecular target: T1, HDAC6 human recombinant (Homo sapiens, UniProt Q9UBN7); assay: HDAC6 enzyme activity inhibition (fluorimetric, in vitro); type: biochemical; conditions: 37° C., 60 minutes; tested at 0.1, 1, 10, 100 and 1000 nM
T1 construct: purchased Calbiochem 382180
T1 sequence (Q9UBN7 1-1215): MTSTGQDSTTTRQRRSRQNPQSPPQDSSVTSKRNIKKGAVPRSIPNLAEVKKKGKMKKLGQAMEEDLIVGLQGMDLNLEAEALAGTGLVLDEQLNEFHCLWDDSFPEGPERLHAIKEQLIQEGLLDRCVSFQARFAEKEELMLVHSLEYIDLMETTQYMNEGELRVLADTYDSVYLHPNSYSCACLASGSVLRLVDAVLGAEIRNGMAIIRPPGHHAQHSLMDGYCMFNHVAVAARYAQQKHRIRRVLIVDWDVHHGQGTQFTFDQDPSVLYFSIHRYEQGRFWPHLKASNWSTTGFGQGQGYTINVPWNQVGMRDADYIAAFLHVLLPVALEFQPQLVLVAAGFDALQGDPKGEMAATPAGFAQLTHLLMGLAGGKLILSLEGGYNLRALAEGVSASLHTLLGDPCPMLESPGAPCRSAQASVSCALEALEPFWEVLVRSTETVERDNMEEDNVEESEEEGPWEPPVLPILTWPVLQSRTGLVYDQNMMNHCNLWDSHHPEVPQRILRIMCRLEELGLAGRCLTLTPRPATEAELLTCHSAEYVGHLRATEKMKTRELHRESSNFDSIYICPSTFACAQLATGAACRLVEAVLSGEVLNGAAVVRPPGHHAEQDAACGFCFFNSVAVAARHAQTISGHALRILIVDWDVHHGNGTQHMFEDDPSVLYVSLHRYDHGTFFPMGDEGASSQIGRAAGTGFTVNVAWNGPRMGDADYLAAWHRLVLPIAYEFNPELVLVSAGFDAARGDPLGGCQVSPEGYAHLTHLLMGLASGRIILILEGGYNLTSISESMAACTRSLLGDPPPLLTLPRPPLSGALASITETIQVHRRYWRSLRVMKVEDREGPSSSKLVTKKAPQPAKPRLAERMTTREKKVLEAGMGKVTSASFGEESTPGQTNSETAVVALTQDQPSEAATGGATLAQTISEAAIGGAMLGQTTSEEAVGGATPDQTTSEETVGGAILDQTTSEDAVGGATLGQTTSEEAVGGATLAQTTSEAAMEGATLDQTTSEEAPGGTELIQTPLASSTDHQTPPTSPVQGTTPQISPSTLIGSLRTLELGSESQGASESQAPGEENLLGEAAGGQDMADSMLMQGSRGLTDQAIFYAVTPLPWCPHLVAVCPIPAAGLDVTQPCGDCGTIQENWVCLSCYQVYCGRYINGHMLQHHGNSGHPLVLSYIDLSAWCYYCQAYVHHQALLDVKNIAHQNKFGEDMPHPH
Procedure, shortened: (§1)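 Fluorimetric deacetylase assay using an HDAC1 kit and human recombinant HDAC6. Compounds tested at 100–10000 nM (HDAC1) or 0.1–1000 nM (HDAC6), reacted 60 min at 37 °C, then developer 30 min at 37 °C before fluorescence read. Values in μM.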

HDAC1 = molecular target: T2, HDAC1 (Homo sapiens, UniProt Q13547); assay: HDAC1 enzyme activity inhibition (HDAC1 fluorimetric drug discovery assay kit); type: biochemical; conditions: 37° C., 60 minutes; tested at 100, 1000 and 10000 nM
T2 construct: purchased Enzolifesciences BML-AK511
Procedure, shortened: as §1

[1] = test system: tubulin acetylation (HDAC6); assay: Western blot of tubulin acetylation in RPMI8226 cells; type: cell-based; conditions: 24 hours, FIG. 1
Description: (§2) Specifically, RPMI8226 cells were seeded into a six-well plate at a density of 1.0×10^6 cells/well, and then treated with varying concentrations of compound 528. After 24 hours, protein was extracted from the cells using RIPA buffer and quantified by the Bradford method. 25 μg of the protein was added to sample buffer and electrophoresed on 4-12% gradient gel, and the gel was transferred to a nitrocellulose membrane for 50 minutes. The membrane was blocked in 5% skim milk solution for 1 hour. Anti-acetyl H3 antibody (1:2,000), anti-acetyl H4 antibody (1:5,000), anti-acetyl tubulin antibody (1:5,000) and anti-β-actin antibody (1:10,000) were added to 5% skim milk, and the membrane was immersed in the skim milk and allowed to react at 4° C. for 16 hours, after which it was washed three times with 1×TBS-T for 10 minutes each washing. IgG-HRP antibody (1:5,000) was added to the 5% skim milk, and the membrane was immersed in the skim milk and allowed to react at room temperature for 40 minutes, after which it was washed three times with 1×TBS-T for 10 minutes each washing. Detection was performed by LAS 3000 using ECL solution.

[2] = test system: histone acetylation (HDAC1); assay: Western blot of histone H3 and H4 acetylation in RPMI8226 cells; type: cell-based; conditions: 24 hours, FIG. 1
Description: as §2

[3] = Distribution in brain tissue and plasma of ICR mice after oral administration; type: in vivo; conditions: mouse, 50 mg/kg PO, 0.5, 1 and 2 hours, LC-MS/MS, FIG. 2, read-out: concentration in the plasma tissue relative to that in the brain tissue
Description: The distribution of the compound of the present invention in the brain tissue of ICR mice was examined. Specifically, the compound of the present invention was administered orally (PO) to ICR mice at a dose of 50 mg/kg. At 0.5, 1 and 2 hours after administration, blood was collected from the orbital venous plexus of the mice. After the mice were euthanized, the brain tissue (including cerebral, cerebellar and medullar tissues) was extracted.
The blood was centrifuged at 13000 rpm for 4 minutes, and then 30 μL of plasma was collected, and an organic solvent (90 wt % acetonitrile in methanol) was added thereto to remove protein. Then, the solution was centrifuged, and the supernatant was collected.
In addition, saline was added to the isolated brain tissue, and homogenized using a homogenizer. From the homogenized dilution, 100 μL of a sample was taken, and an organic solvent (90 wt % acetonitrile in methanol) was added thereto to remove protein, after which the solution was centrifuged, and the supernatant was collected. The concentrations of the compound of the present invention in the pretreated plasma and brain tissue solutions were analyzed by LC-MS/MS.

T2 sequence (Q13547 whole entry): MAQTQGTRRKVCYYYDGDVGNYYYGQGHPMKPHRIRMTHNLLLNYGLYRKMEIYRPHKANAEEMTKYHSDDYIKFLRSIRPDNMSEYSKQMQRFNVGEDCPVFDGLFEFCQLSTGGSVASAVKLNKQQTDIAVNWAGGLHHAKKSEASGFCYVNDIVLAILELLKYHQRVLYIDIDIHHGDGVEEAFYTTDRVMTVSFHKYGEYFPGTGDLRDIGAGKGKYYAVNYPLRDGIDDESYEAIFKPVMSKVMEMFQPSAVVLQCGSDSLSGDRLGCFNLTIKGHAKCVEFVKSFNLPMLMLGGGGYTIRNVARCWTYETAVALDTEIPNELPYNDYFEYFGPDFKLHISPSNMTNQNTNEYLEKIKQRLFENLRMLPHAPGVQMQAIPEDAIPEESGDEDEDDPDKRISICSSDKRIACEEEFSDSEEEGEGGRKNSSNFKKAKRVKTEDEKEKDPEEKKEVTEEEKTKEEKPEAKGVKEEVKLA

Row | Structure (SMILES) | IC50 (HDAC6 human recombinant) | IC50 (HDAC1) | compound concentration at which tubulin acetylation (HDAC6) appeared [1] | compound concentration at which histone acetylation (HDAC1) appeared [2] | Kp [3]
1 | Cc1c(Cc2ccc(C(=O)NO)cc2)c2ccccc2n1CC1CCN(CC(C)(C)F)CC1 [Compound 528, 4-((1-((1-(2-fluoro-2-methylpropyl)piperidin-4-yl)methyl)-2-methyl-1H-indol-3-yl)methyl)-N-hydroxybenzamide] | 74 nM | 8 µM | 100 nM | at least 3 uM | ≥ 0.5
2 | Cc1c(Cc2ccc(C(=O)NO)cc2)c2ccccc2n1CC1CN(CC2(F)COC2)C1 [Compound 749, 4-((1-((1-((3-Fluorooxetan-3-yl)methyl)azetidin-3-yl)methyl)-2-methyl-1H-indol-3-yl)methyl)-N-hydroxybenzamide] | 92 nM | 8.59 µM | – | – | –
